Source: patent US8853424B2 (Japan Science and Technology Agency, priority 2008, dated 2014)

How the values were obtained:
[1] = system: Truncated N-terminal huntington 150 Q-EGFP-Neuron 2a cells; assay: Measurement of x-Fold (polyglutamine aggregation inhibitory activity); assay type: cell-based
Procedure: In the present invention, the polyglutamine aggregation inhibitory activity (x-Fold) can be measured, for example, by the method described in the Example.
The number of the aggregated cells, and the total number of cells were counted by Array Scan V T1 (manufactured by Cellomics, Pittuburg, USA), and the ratio of the aggregated cells to the total number of cells was determined (x-Fold). […]

transglutaminase (TGase) = assay: Measurement of TG (TGase inhibitory activity, monodansyl cadaverine / N,N-dimethylcasein fluorescence, FDSS 3000); assay type: biochemical
How it was run: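 Compound (1 μL of 10 mM stock) added to 0.1 mL reaction: 100 mM HEPES-NaOH pH 7.5, 1 mM CaCl2, 20 μM monodansyl cadaverine, 0.05 mg/mL N,N-dimethylcasein, 5 μg/mL TGase. Rate of fluorescence change at 340 nm measured; DMSO control set to 100; TG50 is the concentration halving activity.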

[2] = ratio of aggregated cells to total number of cells, compound 20 μM, 20 hr, almost 1 without compound, smaller = stronger inhibition
[3] = TGase activity with compound (10 mM, 1 μL in 0.1 ml enzyme reaction solution), DMSO control taken as 100
[4] = polyglutamine aggregation inhibitory activity, Table 1
[5] = TGase inhibitory activity value, Table 1
[6] = polyglutamine aggregation, Truncated N-terminal huntington 150 Q-EGFP-Neuron 2a cells
[7] = TGase inhibitory activity measurement, unit not given

Row | Compound | x-Fold [1, 2] | TGase activity remaining (% of DMSO control = 100) (transglutaminase (TGase); [3]) | x-Fold [1, 4] | TGase activity remaining (% of DMSO control = 100) (transglutaminase (TGase); [5]) | TGase activity remaining (% of DMSO control = 100) (transglutaminase (TGase); TGase inhibitory activity value, Table 1, listed as 6023) | x-Fold [1, 6] | TGase activity remaining (% of DMSO control = 100) (transglutaminase (TGase); [7])
1 | Cc1ccc(B(O)c2ccc(Oc3ccc(B(O)c4ccc(C)c(Cl)c4)cc3)cc2)cc1Cl [Example 251, bis(3-chloro-4-methylphenyl hydroxyborylphenyl)ether] | 0.83 | 121 |  |  |  |  | 
2 | OB(c1ccc(COCc2ccc(B(O)c3ccc(C(F)(F)F)cc3)cc2)cc1)c1ccc(C(F)(F)F)cc1 [Example 143, bis(4-trifluoromethylphenylhydroxyboryl 4-benzyl)ether] | 0.90 | 118 | 0.90 | 118 |  |  | 
3 | NCCOB(c1ccc(Cl)cc1F)c1ccc(Cl)cc1F [Example 84, 2-aminoethyl bis(4-chloro-2-fluorophenyl)borinate] | 0.92 | 91 | 0.92 | 91 |  |  | 
4 | Cc1cc(B(OCCN)c2ccccc2)cc(B(OCCN)c2ccccc2)c1 [Example 357, 3,5-di(phenylaminoethoxyboryl)toluene] | 1.03 | 89 | 1.03 | 89 |  |  | 
5 | diphenyl(tryptophanate-O,N)borane [Example 260] | 0.89 | 106 | 0.89 | 106 |  |  | 
6 | CCCCNCCOB(c1cc(Cl)ccc1C)c1cc(Cl)ccc1C [Example 246, di(5-chloro-2-methylphenyl) 2-butylaminoethylborinate] | 0.67 | 94 |  |  |  |  | 
7 | c1ccc(CNCCOB(c2ccccc2)c2cccc(COCc3cccc(B(OCCNCc4ccccc4)c4ccccc4)c3)c2)cc1 [Example 199, bis(3,3′-(phenylbenzylaminoethoxyboryl)benzyl)ether] | 0.90 | 3 | 0.90 | 3 |  |  | 
8 | N#Cc1cccc(B(O)c2cccc(C#N)c2)c1 [Example 306, 3,3′-di(cyano-phenyl)borinic acid] | 0.98 | 90 | 0.98 | 90 |  |  | 
9 | NCCOB(c1ccc(Cl)c(F)c1)c1ccc(Cl)c(F)c1 [Example 93, aminoethyl bis(4-chloro-3-fluorophenyl)borinate] | 0.93 | 117 | 0.93 |  | 117 |  | 
10 | COc1ccc(B(OC(=O)C(N)CCN)c2ccc(COCc3ccc(B(OC(=O)C(N)CCN)c4ccc(OC)cc4)cc3)cc2)cc1 (centres unmarked) [Example 415, bis(4,4′-(p-methoxyphenyl-2,4-diaminobutyric acid boryl)benzyl)ether] | 0.90 | 130 |  |  |  | 0.90 | 130
11 | c1ccc(B(OB(c2ccccc2)c2ccccc2)c2ccccc2)cc1 [Example 217, diphenylborinic acid anhydride] | 0.94 | 118 | 0.94 | 118 |  |  | 
12 | CC(C)(C)B(OCCN)c1ccccc1 [Example 111, aminoethyl tertiary-butyl phenylborinate] | 1.02 | 121 | 1.02 | 121 |  |  | 
13 | OB(c1ccccc1)c1ccc(COCCOc2ccc(B(O)c3ccccc3)cc2)cc1 [Example 379, (4-(phenylhydroxyboryl)phenoxyethyl)(4-(phenylhydroxyboryl)benzyl)ether] | 0.74 | 92 | 0.74 | 92 |  |  | 
14 | CCCNCCOB(c1ccc(C(F)(F)F)cc1)c1ccc(C(F)(F)F)cc1 [Example 188, di(trifluoromethylphenyl) 2-propylaminoethylborinate] | 0.98 | 91 |  |  |  |  | 
15 | c1ccc(B(OCc2ccccn2)c2cccc3ccccc23)cc1 [Example 202, phenyl naphthyl 2-pyridylmethylborinate] | 0.94 | 91 | 0.94 | 91 |  |  | 
16 | CNCCOB(c1ccc(COCc2ccc(B(OCCNC)c3ccc(F)c(F)c3)cc2)cc1)c1ccc(F)c(F)c1 [Example 417, bis(4,4′-(3,4-difluorophenyl-N-methylaminoethoxyboryl)benzyl)ether] | 1.01 | 91 |  |  |  | 1.01 | 91
17 | Cc1ccc(B(O)c2ccc(Oc3ccc(B(O)c4ccc(C)c(Cl)c4)cc3)cc2)cc1Cl [Example 201, 4,4′-di((3-chloro-4-methylphenyl 2-hydroxyboryl)phenyl)ether] | 0.57 | 99 |  |  |  |  | 
18 | NCCOB(c1ccccc1)c1ccc(-c2ccc(B(OCCN)c3ccccc3)s2)s1 [Example 356, 5,5′-(phenylaminoethoxyboryl)-2,2′-dithiophene] | 1.06 | 51 | 1.06 | 51 |  |  | 
19 | CN(C)CCOB(c1ccc(COCc2ccc(B(OCCN(C)C)c3ccc(F)c(F)c3)cc2)cc1)c1ccc(F)c(F)c1 [Example 418, bis(4,4′-(3,4-difluorophenyl-N,N-dimethylaminoethoxyboryl)benzyl)ether] | 1.02 | 45 |  |  |  | 1.02 | 45
20 | Cc1ccc(Cl)cc1B(OC(=O)C(N)CCCNC(N)=O)c1cc(Cl)ccc1C (centres unmarked) [Example 160, di(3-chloro-6-methyl-phenyl)(citrullinate-O,N)borane] | 1.02 | 88 | 1.02 | 88 |  |  | 
21 | NCCOB(c1ccc(Oc2ccc(B(OCCN)c3cccc4ccccc34)cc2)cc1)c1cccc2ccccc12 [Example 441, bis(4,4′-(naphthyl-aminoethoxyboryl)phenyl)ether] | 0.58 | −1 |  |  |  | 0.58 | −1
22 | Cc1ccc(B(O)c2ccc(COCc3cccc(B(O)c4ccc(C)c(Cl)c4)c3)cc2)cc1Cl [Example 341, (3-(3-chloro-4-methylphenylhydroxyboryl)benzyl)(4-(3-chloro-4-methylphenylhydroxyboryl)benzyl)ether] | 1.04 | 107 |  |  |  |  | 
23 | NC(=O)CC[C@H](N)C(=O)OB(c1ccc(Cl)c(F)c1)c1ccc(Cl)c(F)c1 [Example 96, di(3-fluoro-4-chlorophenyl)(glutaminate-O,N)borane] | 0.86 | 124 | 0.86 | 124 |  |  | 
24 | Cc1ccc(B(OC(=O)C(N)CCC(N)=O)c2ccc(C)c(Cl)c2)cc1Cl (centres unmarked) [Example 182, di(3-chloro-4-methylphenyl)(glutaminate-O,N)borane] | 1.01 | 137 | 1.01 | 137 |  |  | 
25 | NCCOB(c1ccccc1)c1ccccc1COCc1ccccc1B(OCCN)c1ccccc1 [Example 148, bis(2,2′-(phenyl-2-aminoethoxyboryl)benzyl)ether] | 1.00 | 68 | 1.00 | 68 |  |  | 
26 | OB(c1ccc(F)cc1)c1ccc(COCc2ccc(B(O)c3ccc(F)cc3)cc2)cc1 [Example 142, bis(4-fluorophenylhydroxyboryl 4-benzyl)ether] | 0.24 | 88 | 0.24 | 88 |  |  | 
27 | bis((4,4′-phenyl methylaminoethoxyboryl)benzyloxybenzyl)methylaminoethoxyborane [Example 190] | 1.05 | 99 | 1.05 | 99 |  |  | 
28 | OB(Cc1ccc(OCc2ccc(B(O)c3ccccc3)cc2)cc1)Cc1ccc(OCc2ccc(B(O)c3ccccc3)cc2)cc1 [Example 187, bis((4,4′-phenylhydroxyboryl)benzyloxybenzyl)hydroxyborane] | 0.97 | 106 | 0.97 | 106 |  |  | 
29 | CN(C)CCOB(c1ccc(F)c(Cl)c1)c1ccc(F)c(Cl)c1 [Example 78, 2-dimethylaminoethyl bis(3-chloro-4-fluorophenyl)borinate] | 1.02 | 104 | 1.02 | 104 |  |  | 
30 | Cc1ccc(B(O)c2ccc(Oc3ccc(B(O)c4ccc(C)c(Cl)c4)cc3)cc2)cc1Cl [Example 367, 4,4′-bis(3-chloro-4-methyl-phenylhydroxyboryl)diphenylether] | 0.73 | 113 | 0.73 | 113 |  |  | 
